Measured values published in PubChem BioAssay (NCI).
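These data come from cells grown in 96-well plates and exposed to compound for 48 hours at five concentrations. TGI denotes the concentration required for complete inhibition of growth.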

Tests used:
Test in all cases: NCI tumour cell line growth inhibition, 48 h
SF-539 CNS = system: SF-539 CNS
K-562 leukemia = system: K-562 leukemia
SK-MEL-2 melanoma = system: SK-MEL-2 melanoma
HT29 colon = system: HT29 colon
786-0 renal = system: 786-0 renal
CAKI-1 renal = system: CAKI-1 renal
SF-295 CNS = system: SF-295 CNS
SW-620 colon = system: SW-620 colon
IGROV1 ovarian = system: IGROV1 ovarian
NCI/ADR-RES ovarian = system: NCI/ADR-RES ovarian
SK-MEL-5 melanoma = system: SK-MEL-5 melanoma
PC-3 prostate = system: PC-3 prostate
EKVX NSCLC = system: EKVX NSCLC
HCT-116 colon = system: HCT-116 colon
NCI-H460 lung = system: NCI-H460 lung
M14 melanoma = system: M14 melanoma
UACC-257 melanoma = system: UACC-257 melanoma
OVCAR-8 ovarian = system: OVCAR-8 ovarian
HL-60(TB) leukemia = system: HL-60(TB) leukemia
HCC-2998 colon = system: HCC-2998 colon
HOP-62 NSCLC = system: HOP-62 NSCLC
MALME-3M melanoma = system: MALME-3M melanoma
SN12C renal = system: SN12C renal
OVCAR-3 ovarian = system: OVCAR-3 ovarian
SF-268 CNS = system: SF-268 CNS
SNB-75 CNS = system: SNB-75 CNS
HOP-92 NSCLC = system: HOP-92 NSCLC
COLO 205 colon = system: COLO 205 colon
NCI-H23 lung = system: NCI-H23 lung
SK-OV-3 ovarian = system: SK-OV-3 ovarian
MDA-N = system: MDA-N
KM12 colon = system: KM12 colon
A549 NSCLC = system: A549 NSCLC
HS 578T breast = system: HS 578T breast
NCI-H226 lung = system: NCI-H226 lung
SK-MEL-28 melanoma = system: SK-MEL-28 melanoma
MDA-MB-231 breast = system: MDA-MB-231 breast
RPMI-8226 leukemia = system: RPMI-8226 leukemia
LOX IMVI melanoma = system: LOX IMVI melanoma
SNB-19 CNS = system: SNB-19 CNS
CCRF-CEM leukemia = system: CCRF-CEM leukemia
SR leukemia = system: SR leukemia
HCT-15 colon = system: HCT-15 colon
TK-10 renal = system: TK-10 renal
UO-31 renal = system: UO-31 renal
OVCAR-5 ovarian = system: OVCAR-5 ovarian
MCF7 breast = system: MCF7 breast
U251 CNS = system: U251 CNS
ACHN renal = system: ACHN renal

Measured: TGI

CC(C)N(/C(F)=N\C(=O)Nc1ccccc1C(F)(F)F)C(C)C
99 µM: HCC-2998 colon
> 100 µM: SF-539 CNS | K-562 leukemia | HT29 colon | 786-0 renal | CAKI-1 renal | SF-295 CNS | SW-620 colon | IGROV1 ovarian | NCI/ADR-RES ovarian | SK-MEL-5 melanoma | PC-3 prostate | EKVX NSCLC | HCT-116 colon | NCI-H460 lung | M14 melanoma | UACC-257 melanoma | OVCAR-8 ovarian | HL-60(TB) leukemia | HOP-62 NSCLC | MALME-3M melanoma | SN12C renal | OVCAR-3 ovarian | SF-268 CNS | SNB-75 CNS | COLO 205 colon | NCI-H23 lung | SK-OV-3 ovarian | MDA-N | KM12 colon | A549 NSCLC | HS 578T breast | NCI-H226 lung | SK-MEL-28 melanoma | MDA-MB-231 breast | RPMI-8226 leukemia | LOX IMVI melanoma | SNB-19 CNS | CCRF-CEM leukemia | SR leukemia | HCT-15 colon | TK-10 renal | UO-31 renal | OVCAR-5 ovarian | MCF7 breast | U251 CNS | ACHN renal
78.5 µM: SK-MEL-2 melanoma
64.2 µM: HOP-92 NSCLC
